From paper PMC4301871, “WW Domains of the Yes-Kinase-Associated-Protein (YAP) Transcriptional Regulator Behave as Independent Units with Different Binding Preferences for PPxY Motif-Containing Ligands” (PLoS ONE, 2015)
Read-outs that look alike come from different tables or passages of the source.

How the values were obtained:
[1] = biological target: T1, YAP-WW1-WW2 tandem construct (human YAP residues 165–271) (Homo sapiens, UniProt P46937); test: Isothermal titration calorimetry of peptide ligands with the YAP-WW1-WW2 tandem; format: binding; conditions: ITC, 25°C; for n (number of binding sites): 40 mM sodium phosphate pH 7.0 (10 mM β-mercaptoethanol for LATS2), binding model for one set of sites
T1 construct: residues 165–271 for tandem construct (YAP-WW1-WW2); poly-histidine (N, cleaved yes); GST (N, cleaved yes); made in house; host or cells: E. coli BL21 (DE3)

[2] = biological target: T2, YAP-WW1 (first WW domain of human YAP, residues 165–209) (Homo sapiens, UniProt P46937); test: Isothermal titration calorimetry of peptide ligands with isolated YAP-WW1; format: binding; conditions: ITC, 25°C; for n (number of binding sites) / Kd: 40 mM sodium phosphate pH 7.0 (10 mM β-mercaptoethanol for LATS2), one set of identical sites model, at least two experiments; for n (number of binding sites): variability about 1%; for Kd: variability about 10%; for -T·ΔSap / ΔGap / ΔHap: pH 7.0, one set of sites model; for ΔHap: variability about 5%
T2 construct: residues 165–209 for the first WW domain of human YAP (YAP-WW1); poly-histidine (N, cleaved yes); GST (N, cleaved yes); made in house; host or cells: E. coli BL21 (DE3)
Method: (§1) ITC experiments were carried out using a high-precision VP-ITC titration calorimeter (Microcal Inc., Northampton, Massachusetts). The WW domains were extensively dialyzed against 40 mM sodium phosphate buffer, pH 7.0, with the exception of those experiments using the LATS2 ligand, (containing a cysteine residue), for which the dialysis was performed in the presence of 10mM β-mercaptoethanol to reduce intermolecular di-sulphide bonds formed during ligand storage. Protein and peptide solutions, ranging from 20 to 40 μM for the proteins and from 0.8 to 2 mM for the ligands, were properly degassed to avoid bubble formation and equilibrated to 25°C prior to the titration experiment. In all cases, a profile of injection volumes from 3 to 20 μl was used to better define the titration curve. The heat evolved after each peptide injection was obtained from the integral of the calorimetric signal. The heat associated with the binding process was obtained as the difference between the heat of reaction and the corresponding heat of dilution, as obtained from independent titrations of the peptides into the buffer.
(§2) For the individual WW domains and those ligands with similar binding affinities for YAP-WW1 and YAP-WW2 domains (LATS1-a and LATS2), the resulting binding isotherms were analyzed by non-linear least-squares fittings to a model corresponding to a single set of identical sites, according to the equation:
(§3) Q=V0ΔH/2Ka[1+Ka[Lt]+nKa[Mt]+(1+Ka[Lt]+nKa[Mt])^2−4nKa2[Mt][Lt]] (equation 2)
(§4) , where Q is the net heat of binding, n is the number of binding sites, ΔH is the change in the enthalpy due to the binding process, Ka is the association constant, V0 is the active cell volume, and [Mt] and [Lt] are the total concentrations of macromolecule and the ligand, respectively.
(§5) Both models were implemented in Origin 7.0 software (OriginLab Corporation, Northampton, MA). For the least-squares fit using the one set of sites model, the number of binding sites, the association constant, and the binding enthalpy were considered as floating parameters, while in the analysis with the two set of sites model, only the two association constants and the two binding enthalpies were left to float. All experiments were performed at least twice. Typically, the variability of the experimental values was estimated to be about 1% in the number of binding sites, 5% in the binding enthalpy and 10% in the binding affinity.

[3] = biological target: T3, YAP-WW2 (second WW domain of human YAP, residues 228–271) (Homo sapiens, UniProt P46937); test: Isothermal titration calorimetry of peptide ligands with isolated YAP-WW2; format: binding; conditions: ITC, 25°C; for n (number of binding sites) / Kd: 40 mM sodium phosphate pH 7.0 (10 mM β-mercaptoethanol for LATS2), one set of identical sites model, at least two experiments; for n (number of binding sites): variability about 1%; for Kd: variability about 10%, n.b. = no binding detected; for -T·ΔSap / ΔGap / ΔHap: pH 7.0, one set of sites model; for ΔHap: variability about 5%
T3 construct: residues 228–271 for the second WW domain (YAP-WW2); poly-histidine (N, cleaved yes); GST (N, cleaved yes); made in house; host or cells: E. coli BL21 (DE3)
Method: as §1, §2, §3, §4, §5

YAP-WW1 domain = test: Phage ELISA of YAP-WW2-selected clones, displacement of p53BP2 from YAP-WW1; format: binding, human; conditions: YAP-WW1 compared with YAP-WW2
Method: The analysis of the binding preferences of the WW domains was performed by phage-display as previously described. Briefly, an N-term library in PIII was generated using a template derived from the pS2202d phagemid, containing the Erbin-PDZ domain kindly provided by Dr. Sachdev Sidhu (University of Toronto). The Erbin-PDZ sequence was removed by the introduction of four stop codons between the secretion signal and the linker required for the correct display of the library variants in the phage. A randomized sequence corresponding to a x5(L/P)PxYx5 peptide library containing the L/PPxY core motif for type 1 WW domains was subsequently introduced into the modified phagemid. The resulting library was then introduced into the SS320 strain by electroporation. The subsequent phage propagation led to 10^11 library diversity, which was isolated at 5 x 10^13 phages/ml in PBS-Tween (0.05%) buffer. The resulting library was then screened against immobilized GST-tagged YAP-WW2 domain (GST-YAP-WW2) in PBS, carrying out seven rounds of an iterative selection process. Single clones were chosen from round 3 to round 7 and tested for specific binding to the GST-YAP-WW2 by phage ELISA in a Tecan Infinite M200 instrument. […] The DNA from phages showing binding in the ELISA assay were used as PCR templates to amplify the peptide-encoding regions, which were then sequenced and analyzed.

[4] = pH 7.0, binding model for one set of sites
[5] = pH 7.0, model of two different sets of sites, n fixed to 1 each, first set of sites (first line)
[6] = pH 7.0, model of two different sets of sites, n fixed to 1 each, second set of sites (second line)
[7] = pH 7.0, two sets of sites model, n fixed to 1, first set of sites
[8] = pH 7.0, two sets of sites model, n fixed to 1, second set of sites

T2 sequence (P46937 165-209): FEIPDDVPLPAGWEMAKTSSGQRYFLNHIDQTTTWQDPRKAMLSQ
T3 sequence (P46937 228-271): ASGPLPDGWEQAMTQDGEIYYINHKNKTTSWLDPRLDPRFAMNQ
T1 sequence (P46937 165-271): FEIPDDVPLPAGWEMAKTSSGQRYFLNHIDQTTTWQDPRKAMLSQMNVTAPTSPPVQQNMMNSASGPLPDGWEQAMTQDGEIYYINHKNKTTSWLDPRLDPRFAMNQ

Compound | n (number of binding sites) [1] | -T·ΔSap [1, 4] [kJ/mol] | Kd [1, 4] [µM] | ΔGap [1, 4] [kJ/mol] | ΔHap [1, 4] [kJ/mol] | n (number of binding sites) [2] | Kd [2] [µM] | -T·ΔSap [2] [kJ/mol] | ΔGap [2] [kJ/mol] | ΔHap [2] [kJ/mol] | n (number of binding sites) [3] | Kd ([3]; read-out: Kd) [µM] | -T·ΔSap [3] [kJ/mol] | ΔGap [3] [kJ/mol] | ΔHap [3] [kJ/mol] | Kd [1, 5] [µM] | Kd [1, 6] [µM] | -T·ΔSap [1, 7] [kJ/mol] | ΔGap [1, 7] [kJ/mol] | ΔHap [1, 7] [kJ/mol] | further results
CC(=O)N[C@@H](CC(N)=O)C(=O)N[C@@H](CCCNC(=N)N)C(=O)N[C@@H](CCC(N)=O)C(=O)N1CCC[C@H]1C(=O)N1CCC[C@H]1C(=O)N1CCC[C@H]1C(=O)N1CCC[C@H]1C(=O)N[C@@H](Cc1ccc(O)cc1)C(=O)N1CCC[C@H]1C(=O)N[C@@H](CC(C)C)C(=O)N[C@H](C(=O)N[C@@H](C)C(N)=O)[C@@H](C)O [LATS1-a] | 2.04 | 46.4 | 33.4 | -25.6 | -72.0 | 0.96 | 21.5 | 40.3 | -26.7 | -67.0 | 1.09 | 27 | 50.1 | -26.1 | -76.2 | – | – | – | – | – | –
CC(=O)N[C@@H](CCCNC(=N)N)C(=O)N[C@@H](Cc1ccc(O)cc1)C(=O)N[C@@H](CO)C(=O)N1CCC[C@H]1C(=O)N1CCC[C@H]1C(=O)N1CCC[C@H]1C(=O)N1CCC[C@H]1C(=O)N[C@@H](Cc1ccc(O)cc1)C(=O)N[C@@H](CO)C(=O)N[C@@H](CO)C(=O)N[C@@H](Cc1c[nH]cn1)C(=O)N[C@@H](CO)C(N)=O [PTCH1-a] | – | – | – | – | – | 0.95 | 27.6 | 38.9 | -26.1 | -65.0 | 0.91 | 45.8 | 41.1 | -24.8 | -65.9 | 24.7 | 47.4 | 26.5 | -26.4 | -52.9 | -T·ΔSap [1, 8]: 50.5 kJ/mol; ΔGap [1, 8]: -24.7 kJ/mol; ΔHap [1, 8]: -75.2 kJ/mol
AGRPPPPPYPGPPL | – | – | – | – | – | – | – | – | – | – | – | – | – | – | – | – | – | – | – | – | Interaction with the two WW domains of YAP (ELISA binding experiments) (YAP-WW1 domain): seems to interact similarly with the two WW domains of YAP
Ac-EGLWPPPYRPRR-NH2 [PTCH1-b] | – | 52.9 | 16.9 | -27.3 | -80.2 | 1.09 | 13.2 | 47.3 | -27.9 | -75.2 | – | – | – | – | – | – | – | – | – | – | Kd [3]: no interaction was detected and n.b.
Ac-RRCPPPPYPKHL-NH2 [LATS2] | 2.02 | 40.0 | 9.2 | -28.8 | -68.8 | 1.05 | 7.1 | 49.7 | – | -78.5 | 1.08 | 8.2 | 28.7 | -29.1 | -57.8 | – | – | – | – | – | –
Ac-YQGPPPPYPKHL-NH2 [LATS1-b] | – | – | – | – | – | 0.91 | 3.7 | 38.0 | -31.0 | -69.0 | 0.94 | 33.9 | 44.6 | -25.6 | -70.2 | 4.8 | 31.9 | 40.4 | -30.4 | -70.8 | -T·ΔSap [1, 8]: 26.1 kJ/mol; ΔGap [1, 8]: -25.7 kJ/mol; ΔHap [1, 8]: -51.8 kJ/mol
